Experiments:
Test in all cases: SILAC LC-MS ABPP
Assay type in all cases: cell-based
Settings in all cases: 25 μM 2 h, live DM93 cells
[1] = target: T1, O75150 (Homo sapiens, UniProt O75150)
T1 construct: endogenous in cells; host or cells: DM93
Method: (§1) Cells were grown to 90-95% confluence before being washed once with warm, sterile DPBS (1×, 5 mL), followed by addition of 10 mL of serum-free media (supplemented with 1% L-glutamine) containing either DMSO or SuTEx fragment (in DMSO) was added. Light cells were treated with DMSO vehicle while the heavy cells were treated with DMSO or SuTEx fragment (in DMSO) and incubated for 2 hrs. After 2 hrs, the cells were treated with SuTEx alkyne probe (HHS475, 10 μL of 1000× DMSO stock) and incubated for an additional 2 hrs. The media was aspirated and cells washed with cold PBS (5 mL) and harvested. Cells were spun at 500×g for 5 min at 4° C. followed by removal of supernatant. Pellets were resuspended in 1 mL of cold DPBS and spun at 1,400×g for 3 min at 4° C. followed by removal of supernatant. The cells were lysed in PBS by sonication and fractionated (100,000×g, 45 min, 4° C.).The light and heavy soluble fractions were diluted to 2.3 mg/mL in PBS and 432 μL were used for analysis (1 mg total protein). The probe-modified proteomes were conjugated to desthiobiotin-PEG3-azide (10 μl of 10 mM stock in DMSO; 200 μM final concentration) using TCEP (10 μl of fresh 50 mM stock in water, 1 mM final concentration), TBTA ligand (33 μl of a 1.7 mM 4:1 t-butanol/DMSO stock, 100 μM final concentration) and CuSO4 (10 μl of 50 mM stock, 1 mM final concentration). Samples were vortexed to mix and incubated for 1 hr at room temperature. The heavy and light proteomes were mixed 1:1 and the subsequent steps, including LC-MS/MS data analysis, were performed as previously described^[8a].
(§2) Coupling cell-based screens with chemical proteomics can facilitate the identification of target protein and binding sites that engage and are irreversibly modified by covalent ligands^[12]. In these assays, covalent ligands block SuTEx activity-based probe (ABP) labeling at protein sites, and the competition of probe labeling can be used to quantify potency and selectivity across the proteome^[10a]. To facilitate quantitative chemical proteomics, DM93 melanoma cells were cultured using stable isotopic labeling by amino acids in cell culture (SILAC)^[13]. Cells cultured in “light” media were treated with dimethyl sulfoxide (DMSO) vehicle while cells cultured in “heavy” media were treated with SuTEx ligand (25 μM, 2 hours, 37° C.). Next, cells were treated with HHS-475 probe (100 μM, 2 hours, 37° C.) followed by lysis and processing of proteomes for analysis. Probe-modified proteins from the soluble fraction were conjugated to a desthiobiotin-azide tag by copper-catalyzed azide-alkyne cycloaddition (CuAAC)^[14] followed by mixing of the light and heavy proteomes. The combined proteomes were digested with trypsin protease to produce probe-modified peptides, followed by enrichment and purification by avidin affinity chromatography. Probe-modified peptides were resolved, identified, and quantified by high-resolution liquid chromatography-tandem mass spectrometry (LC-MS/MS). Resultant data were analyzed as previously described^[8a, 10a]. Table 2, below, lists sites of modification targeted by sulfonyl-triazole compounds HHS-0101, HHS-0201, HHS-0301, HHS-0401, and HHS-0701. The format of the table is as follows: protein Uniprot accession number (see uniprot.org); tyrosine site (amino acid position) modified; treatment (sulfonyl-triazole compound identification number, followed by Y (where if multiple compounds modify the same site, the compounds are separated by vertical lines).

[2] = target: T2, Q04637 (Homo sapiens, UniProt Q04637)
T2 construct: performing SuTEx compound screening directly in cells; endogenous in cells; host or cells: DM93 cells (SILAC)
Method: as §1, §2

[3] = target: T3, P11216 (Homo sapiens, UniProt P11216)
T3 construct: endogenous in cells; host or cells: DM93 cells (SILAC)
Method: as §1, §2

[4] = target: T4, Q14157 (Homo sapiens, UniProt Q14157)
T4 construct: performing SuTEx compound screening directly in cells; endogenous in cells; host or cells: DM93 cells (SILAC), soluble fraction
T4 sequence (Q14157 1-1087): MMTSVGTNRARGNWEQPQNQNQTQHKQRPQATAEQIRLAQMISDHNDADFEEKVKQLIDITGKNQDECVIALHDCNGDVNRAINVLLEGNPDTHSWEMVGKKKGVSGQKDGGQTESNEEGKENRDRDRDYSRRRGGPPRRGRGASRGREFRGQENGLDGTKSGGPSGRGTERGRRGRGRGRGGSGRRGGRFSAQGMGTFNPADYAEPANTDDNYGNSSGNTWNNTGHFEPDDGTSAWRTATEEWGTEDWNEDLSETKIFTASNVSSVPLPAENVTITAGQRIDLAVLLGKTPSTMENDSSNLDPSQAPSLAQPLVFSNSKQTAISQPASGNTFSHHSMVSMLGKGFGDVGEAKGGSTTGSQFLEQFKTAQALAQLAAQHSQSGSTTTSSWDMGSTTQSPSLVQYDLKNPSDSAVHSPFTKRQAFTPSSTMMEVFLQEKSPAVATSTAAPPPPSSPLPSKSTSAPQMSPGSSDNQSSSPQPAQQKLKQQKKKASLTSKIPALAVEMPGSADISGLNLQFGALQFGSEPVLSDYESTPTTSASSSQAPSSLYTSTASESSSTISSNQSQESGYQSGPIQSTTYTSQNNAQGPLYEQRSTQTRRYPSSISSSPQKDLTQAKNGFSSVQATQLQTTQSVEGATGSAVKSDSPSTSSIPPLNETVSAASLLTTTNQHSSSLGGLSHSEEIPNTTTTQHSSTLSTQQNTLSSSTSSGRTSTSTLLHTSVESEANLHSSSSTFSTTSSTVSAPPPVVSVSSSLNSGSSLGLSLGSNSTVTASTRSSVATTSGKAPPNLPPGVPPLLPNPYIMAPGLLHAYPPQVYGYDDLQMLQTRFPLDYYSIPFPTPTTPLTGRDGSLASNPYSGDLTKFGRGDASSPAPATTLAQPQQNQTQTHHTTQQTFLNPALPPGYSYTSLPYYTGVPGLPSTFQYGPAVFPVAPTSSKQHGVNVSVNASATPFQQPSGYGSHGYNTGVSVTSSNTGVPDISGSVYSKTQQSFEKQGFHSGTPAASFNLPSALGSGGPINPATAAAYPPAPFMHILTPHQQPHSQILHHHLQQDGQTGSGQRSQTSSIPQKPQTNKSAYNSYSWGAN
Method: as §1, §2

[5] = target: T5, Q9Y520 (Homo sapiens, UniProt Q9Y520)
T5 construct: endogenous in cells; host or cells: DM93 cells (SILAC)
Method: as §1, §2

[6] = target: T6, Q96AT1 (Homo sapiens, UniProt Q96AT1)
T6 construct: endogenous in cells; host or cells: DM93 cells (SILAC), treated live; soluble proteome analysed
Method: as §1, §2

T2 sequence (Q04637 whole entry): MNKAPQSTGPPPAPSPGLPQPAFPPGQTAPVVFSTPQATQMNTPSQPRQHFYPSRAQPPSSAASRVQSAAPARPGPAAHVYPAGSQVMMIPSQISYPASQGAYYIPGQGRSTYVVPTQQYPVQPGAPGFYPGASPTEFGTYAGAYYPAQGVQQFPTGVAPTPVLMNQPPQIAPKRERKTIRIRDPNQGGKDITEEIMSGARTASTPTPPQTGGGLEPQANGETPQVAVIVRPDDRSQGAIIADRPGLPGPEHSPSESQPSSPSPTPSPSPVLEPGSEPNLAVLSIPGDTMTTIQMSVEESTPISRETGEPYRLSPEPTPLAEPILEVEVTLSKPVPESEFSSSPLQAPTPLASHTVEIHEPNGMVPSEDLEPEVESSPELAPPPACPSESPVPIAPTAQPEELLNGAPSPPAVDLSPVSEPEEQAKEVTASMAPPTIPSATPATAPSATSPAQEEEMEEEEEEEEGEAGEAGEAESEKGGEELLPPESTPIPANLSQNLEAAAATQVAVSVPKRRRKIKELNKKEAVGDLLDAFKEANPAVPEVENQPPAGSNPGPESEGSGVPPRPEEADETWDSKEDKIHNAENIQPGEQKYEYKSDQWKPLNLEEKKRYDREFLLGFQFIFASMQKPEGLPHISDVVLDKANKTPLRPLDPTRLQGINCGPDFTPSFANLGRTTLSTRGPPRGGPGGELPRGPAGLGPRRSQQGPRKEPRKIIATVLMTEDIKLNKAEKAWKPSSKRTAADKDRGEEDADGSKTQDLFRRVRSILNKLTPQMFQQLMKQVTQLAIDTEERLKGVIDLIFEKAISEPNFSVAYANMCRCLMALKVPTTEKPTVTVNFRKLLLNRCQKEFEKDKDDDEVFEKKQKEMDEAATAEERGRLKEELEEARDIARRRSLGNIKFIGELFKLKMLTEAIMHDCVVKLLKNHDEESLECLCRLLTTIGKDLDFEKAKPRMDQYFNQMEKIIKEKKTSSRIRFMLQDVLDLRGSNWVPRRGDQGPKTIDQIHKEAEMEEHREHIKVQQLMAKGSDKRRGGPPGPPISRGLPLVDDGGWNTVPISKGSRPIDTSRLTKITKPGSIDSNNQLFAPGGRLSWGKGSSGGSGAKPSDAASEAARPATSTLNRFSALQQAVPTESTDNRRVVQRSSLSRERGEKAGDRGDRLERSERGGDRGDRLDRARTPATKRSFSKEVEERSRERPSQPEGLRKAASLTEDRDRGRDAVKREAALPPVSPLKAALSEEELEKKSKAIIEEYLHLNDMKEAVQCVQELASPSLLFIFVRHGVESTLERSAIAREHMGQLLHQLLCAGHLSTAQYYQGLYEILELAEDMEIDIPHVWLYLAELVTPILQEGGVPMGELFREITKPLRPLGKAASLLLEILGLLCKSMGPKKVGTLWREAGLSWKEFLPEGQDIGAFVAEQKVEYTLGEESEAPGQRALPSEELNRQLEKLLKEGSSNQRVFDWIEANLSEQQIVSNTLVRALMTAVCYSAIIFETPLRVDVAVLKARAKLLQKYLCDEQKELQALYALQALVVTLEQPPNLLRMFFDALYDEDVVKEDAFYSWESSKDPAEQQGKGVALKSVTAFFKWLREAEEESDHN
T6 sequence (Q96AT1 whole entry): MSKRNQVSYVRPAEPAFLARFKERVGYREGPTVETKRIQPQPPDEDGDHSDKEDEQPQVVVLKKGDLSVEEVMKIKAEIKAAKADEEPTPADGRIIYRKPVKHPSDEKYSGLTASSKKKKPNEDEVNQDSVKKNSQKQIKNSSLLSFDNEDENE
T5 sequence (Q9Y520 whole entry): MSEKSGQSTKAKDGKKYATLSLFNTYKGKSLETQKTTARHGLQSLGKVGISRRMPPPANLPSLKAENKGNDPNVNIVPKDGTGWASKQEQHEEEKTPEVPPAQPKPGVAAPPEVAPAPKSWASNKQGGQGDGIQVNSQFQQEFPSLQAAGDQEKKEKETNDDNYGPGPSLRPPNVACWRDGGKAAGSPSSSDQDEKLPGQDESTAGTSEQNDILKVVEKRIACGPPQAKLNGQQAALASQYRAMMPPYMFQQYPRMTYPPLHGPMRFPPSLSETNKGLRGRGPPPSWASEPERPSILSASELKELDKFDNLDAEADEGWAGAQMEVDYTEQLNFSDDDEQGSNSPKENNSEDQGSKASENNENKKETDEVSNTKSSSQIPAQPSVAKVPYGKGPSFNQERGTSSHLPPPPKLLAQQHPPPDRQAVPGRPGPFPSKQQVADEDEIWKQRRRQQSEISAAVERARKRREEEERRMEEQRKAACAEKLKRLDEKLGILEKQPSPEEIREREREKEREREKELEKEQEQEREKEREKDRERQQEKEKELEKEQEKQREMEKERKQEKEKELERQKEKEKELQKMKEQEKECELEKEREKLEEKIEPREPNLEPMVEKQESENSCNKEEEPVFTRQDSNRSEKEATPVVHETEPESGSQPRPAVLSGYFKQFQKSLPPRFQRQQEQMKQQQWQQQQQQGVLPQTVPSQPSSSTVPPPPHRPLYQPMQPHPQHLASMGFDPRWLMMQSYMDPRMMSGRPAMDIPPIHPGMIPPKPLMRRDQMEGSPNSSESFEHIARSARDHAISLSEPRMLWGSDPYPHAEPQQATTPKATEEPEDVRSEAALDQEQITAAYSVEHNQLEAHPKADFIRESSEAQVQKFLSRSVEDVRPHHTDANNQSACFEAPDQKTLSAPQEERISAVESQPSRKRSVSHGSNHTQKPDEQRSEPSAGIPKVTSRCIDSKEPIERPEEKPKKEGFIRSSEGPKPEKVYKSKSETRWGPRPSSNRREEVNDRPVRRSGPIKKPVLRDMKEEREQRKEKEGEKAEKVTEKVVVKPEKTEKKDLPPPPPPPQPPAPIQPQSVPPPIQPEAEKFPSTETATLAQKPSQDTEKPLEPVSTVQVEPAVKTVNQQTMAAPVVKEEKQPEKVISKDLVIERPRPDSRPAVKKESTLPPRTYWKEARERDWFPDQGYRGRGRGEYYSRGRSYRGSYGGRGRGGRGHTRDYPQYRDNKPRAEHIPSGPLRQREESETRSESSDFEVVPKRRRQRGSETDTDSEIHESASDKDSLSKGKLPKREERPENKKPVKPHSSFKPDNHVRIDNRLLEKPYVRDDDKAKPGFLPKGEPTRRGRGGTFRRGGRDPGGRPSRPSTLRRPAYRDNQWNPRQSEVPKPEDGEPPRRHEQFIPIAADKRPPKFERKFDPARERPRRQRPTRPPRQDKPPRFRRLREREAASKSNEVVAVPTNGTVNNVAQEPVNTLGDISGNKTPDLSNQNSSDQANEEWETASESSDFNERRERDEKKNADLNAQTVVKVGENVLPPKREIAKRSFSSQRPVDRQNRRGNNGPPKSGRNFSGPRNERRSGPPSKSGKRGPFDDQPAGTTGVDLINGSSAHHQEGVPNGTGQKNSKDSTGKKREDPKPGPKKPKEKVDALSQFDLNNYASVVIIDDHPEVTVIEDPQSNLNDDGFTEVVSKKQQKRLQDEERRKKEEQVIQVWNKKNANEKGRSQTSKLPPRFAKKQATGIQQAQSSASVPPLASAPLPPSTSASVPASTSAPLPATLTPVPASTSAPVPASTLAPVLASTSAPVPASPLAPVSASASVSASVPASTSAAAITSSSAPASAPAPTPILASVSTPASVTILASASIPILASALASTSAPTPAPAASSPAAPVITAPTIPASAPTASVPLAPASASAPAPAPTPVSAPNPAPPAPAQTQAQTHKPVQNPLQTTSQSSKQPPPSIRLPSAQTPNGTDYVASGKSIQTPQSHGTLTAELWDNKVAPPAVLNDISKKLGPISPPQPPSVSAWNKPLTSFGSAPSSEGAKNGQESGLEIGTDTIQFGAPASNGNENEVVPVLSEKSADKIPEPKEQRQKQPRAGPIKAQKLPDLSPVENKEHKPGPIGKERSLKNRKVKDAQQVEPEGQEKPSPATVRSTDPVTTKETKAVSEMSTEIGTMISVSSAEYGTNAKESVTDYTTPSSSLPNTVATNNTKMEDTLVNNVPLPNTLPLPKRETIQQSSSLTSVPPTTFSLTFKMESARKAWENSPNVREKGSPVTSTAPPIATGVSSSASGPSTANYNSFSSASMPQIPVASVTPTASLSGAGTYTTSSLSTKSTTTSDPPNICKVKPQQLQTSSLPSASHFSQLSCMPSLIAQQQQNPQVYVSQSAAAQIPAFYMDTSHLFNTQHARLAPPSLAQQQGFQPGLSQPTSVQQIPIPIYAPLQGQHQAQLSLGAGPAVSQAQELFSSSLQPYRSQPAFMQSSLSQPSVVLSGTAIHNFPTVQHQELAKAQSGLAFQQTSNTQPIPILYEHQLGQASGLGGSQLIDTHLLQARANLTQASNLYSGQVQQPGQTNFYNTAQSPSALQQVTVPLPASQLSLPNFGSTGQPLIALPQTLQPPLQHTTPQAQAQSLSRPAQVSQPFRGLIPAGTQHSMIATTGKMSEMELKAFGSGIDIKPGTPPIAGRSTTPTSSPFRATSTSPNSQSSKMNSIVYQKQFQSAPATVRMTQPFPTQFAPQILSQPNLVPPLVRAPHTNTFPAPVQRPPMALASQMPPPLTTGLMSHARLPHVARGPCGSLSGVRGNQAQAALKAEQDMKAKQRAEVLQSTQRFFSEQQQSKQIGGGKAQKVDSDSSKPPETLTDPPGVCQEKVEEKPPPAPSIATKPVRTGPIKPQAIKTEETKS

SMILES: O=C(NC1CCCCC1)c1ccc(S(=O)(=O)n2cncn2)cc1 [HHS-0301, 4-((1H-1,2,4-triazol-1-yl)sulfonyl)-N-cyclohexylbenzamide]
- liganded tyrosine site 258 [1]: HHS0301.Y (tyrosine sites that showed >80% reductions (SR >5) in probe labeling in cells treated with compounds (liganded sites))
- liganded tyrosine site 81 [2]: HHS0301.Y (tyrosine sites that showed >80% reductions (SR >5) in probe labeling in cells treated with compounds (liganded sites))
- liganded tyrosine site 104 [2]: HHS0301.Y|HHS0701.Y (tyrosine sites that showed >80% reductions (SR >5) in probe labeling in cells treated with compounds (liganded sites))

SMILES: O=C(NCC1CC1)c1ccc(S(=O)(=O)n2cncn2)cc1 [HHS-0201, 4-((1H-1,2,4-triazol-1-yl)sulfonyl)-N-(cyclopropylmethyl)benzamide]
- liganded tyrosine site 204 [3]: HHS0201.Y (tyrosine sites that showed >80% reductions (SR >5) in probe labeling in cells treated with compounds (liganded sites))
- liganded tyrosine site 103 [2]: HHS0201.Y|HHS0301.Y|HHS0401.Y|HHS0701.Y (tyrosine sites that showed >80% reductions (SR >5) in probe labeling in cells treated with compounds (liganded sites))
- liganded tyrosine site 204 [4]: HHS0201.Y (tyrosine sites that showed >80% reductions (SR >5) in probe labeling in cells treated with compounds (liganded sites))
- liganded tyrosine site 214 [4]: HHS0201.Y (tyrosine sites that showed >80% reductions (SR >5) in probe labeling in cells treated with compounds (liganded sites))
- liganded tyrosine site 26 [5]: HHS0201.Y (tyrosine sites that showed >80% reductions (SR >5) in probe labeling in cells treated with compounds (liganded sites))

SMILES: O=C(NCc1ccccc1)c1ccc(S(=O)(=O)n2cncn2)cc1 [HHS-0401, 4-((1H-1,2,4-triazol-1-yl)sulfonyl)-N-benzylbenzamide]
- liganded tyrosine site 803 [4]: HHS0401.Y (tyrosine sites that showed >80% reductions (SR >5) in probe labeling in cells treated with compounds (liganded sites))
- liganded tyrosine site 109 [6]: HHS0401.Y (tyrosine sites that showed >80% reductions (SR >5) in probe labeling in cells treated with compounds (liganded sites))
- liganded tyrosine site 2707 [5]: HHS0401.Y (tyrosine sites that showed >80% reductions (SR >5) in probe labeling in cells treated with compounds (liganded sites))

SMILES: O=C(NC1CC1)c1ccc(S(=O)(=O)n2cncn2)cc1 [HHS-0101, 4-((1H-1,2,4-triazol-1-yl)sulfonyl)-N-cyclopropylbenzamide]
- liganded tyrosine site 928 [1]: HHS0101.Y (tyrosine sites that showed >80% reductions (SR >5) in probe labeling in cells treated with compounds (liganded sites))
- liganded tyrosine site 473 [3]: HHS0101.Y (tyrosine sites that showed >80% reductions (SR >5) in probe labeling in cells treated with compounds (liganded sites))
- liganded tyrosine site 9 [6]: HHS0101.Y (tyrosine sites that showed >80% reductions (SR >5) in probe labeling in cells treated with compounds (liganded sites))
